Experiments:
K562 = experiment: Growth inhibition against human K562 cells after 48 hrs by MTT assay; assay type: functional, cell-based; details: for IC50: K562, 48 h
A375-S2 = experiment: (§1) Growth inhibition against human A375-S2 cells after 48 hrs by MTT assay; assay type: functional, cell-based
[1] = as §1; assay type: functional, cell-based; details: A375-S2, 48 h
HepG2 = experiment: Growth inhibition against human HepG2 cells after 48 hrs by MTT assay; assay type: functional, cell-based; details: for IC50: HepG2, 48 h
HT-1080 = experiment: Growth inhibition against human HT1080 cells after 48 hrs by MTT assay; assay type: functional, cell-based; details: for IC50: HT-1080, 48 h
MRC5 = experiment: Growth inhibition against human MRC5 cells after 48 hrs by MTT assay; assay type: cell-based; details: for IC50: Homo sapiens, MRC5, 48 h; for growth inhibition (GI): human, mrc5, 48 h
HeLa = experiment: Growth inhibition against human HeLa cells after 48 hrs by MTT assay; assay type: functional, cell-based
MCF7 = experiment: Growth inhibition against human MCF7 cells after 48 hrs by MTT assay; assay type: functional, cell-based; details: for IC50: MCF7, 48 h
U-937 = experiment: Growth inhibition against human U937 cells after 48 hrs by MTT assay; assay type: functional, cell-based; details: for IC50: U-937, 48 h
HL-60 = experiment: Growth inhibition against human HL60 cells after 48 hrs by MTT assay; assay type: functional, cell-based; details: for IC50: HL-60, 48 h
HCT-116 = experiment: Growth inhibition against human HCT116 cells after 48 hrs by MTT assay; assay type: functional, cell-based; details: for IC50: HCT-116, 48 h
A549 = experiment: Growth inhibition against human A549 cells after 48 hrs by MTT assay; assay type: functional, cell-based; details: for IC50: A549, 48 h

| Compound | growth inhibition (GI) (K562) | IC50 (K562) [µM] | growth inhibition (GI) (A375-S2) | IC50 [1] [µM] | growth inhibition (GI) (HepG2) | IC50 (HepG2) [µM] | growth inhibition (GI) (HT-1080) | IC50 (HT-1080) [µM] | IC50 (MRC5) [µM] | growth inhibition (GI) (MRC5) | IC50 (HeLa) [µM] | growth inhibition (GI) (HeLa) | growth inhibition (GI) (MCF7) | IC50 (MCF7) [µM] | growth inhibition (GI) (U-937) | IC50 (U-937) [µM] | growth inhibition (GI) (HL-60) | IC50 (HL-60) [µM] | growth inhibition (GI) (HCT-116) | growth inhibition (GI) (A549) | further results |
| --- | --- | --- | --- | --- | --- | --- | --- | --- | --- | --- | --- | --- | --- | --- | --- | --- | --- | --- | --- | --- | --- |
| COc1cc([C@@H](O)[C@@H](CO)Oc2ccc(/C=C/C=O)cc2OC)ccc1O | Dose-dependent effect | > 50 | Dose-dependent effect | 34.2 | Dose-dependent effect | 38.6 | Dose-dependent effect | 33 | > 50 | Dose-dependent effect | > 50 | Dose-dependent effect | Dose-dependent effect | > 50 | Dose-dependent effect | > 50 | Dose-dependent effect | 33.5 | Dose-dependent effect | Dose-dependent effect | IC50 (HCT-116): 27.3 µM; IC50 (A549): 25.5 µM |
| COc1cc([C@H](O)[C@@H](CO)Oc2ccc(C=O)cc2OC)ccc1O | Dose-dependent effect | > 50 | Dose-dependent effect | > 50 | Dose-dependent effect | > 50 | Dose-dependent effect | > 50 | > 50 | Dose-dependent effect | > 50 | Dose-dependent effect | Dose-dependent effect | > 50 | Dose-dependent effect | 39.1 | Dose-dependent effect | > 50 | Dose-dependent effect | Dose-dependent effect | IC50 (HCT-116): > 50 µM; IC50 (A549): > 50 µM |
| O=c1[nH]cc(F)c(=O)[nH]1 [FLUOROURACIL] | Dose-dependent effect |  | Dose-dependent effect |  | Dose-dependent effect |  | Dose-dependent effect |  |  |  |  | Dose-dependent effect | Dose-dependent effect |  | Dose-dependent effect |  | Dose-dependent effect | 10.1 | Dose-dependent effect | Dose-dependent effect |  |
| COc1cc([C@@H](O)[C@@H](CO)Oc2ccc(C=O)cc2OC)ccc1O | Dose-dependent effect | > 50 | Dose-dependent effect | > 50 | Dose-dependent effect | > 50 | Dose-dependent effect | > 50 | > 50 | Dose-dependent effect | > 50 | Dose-dependent effect | Dose-dependent effect | > 50 | Dose-dependent effect | 32.2 | Dose-dependent effect | > 50 | Dose-dependent effect | Dose-dependent effect | IC50 (HCT-116): > 50 µM; IC50 (A549): > 50 µM |
| COc1cc([C@@H](OC)[C@@H](CO)Oc2ccc(/C=C/C=O)cc2OC)ccc1O | Dose-dependent effect | > 50 | Dose-dependent effect | > 50 | Dose-dependent effect | 40 | Dose-dependent effect | 31.9 | > 50 | Dose-dependent effect | > 50 | Dose-dependent effect | Dose-dependent effect | > 50 | Dose-dependent effect | 2.71 | Dose-dependent effect | 25.5 | Dose-dependent effect | Dose-dependent effect | IC50 (HCT-116): 26.4 µM; IC50 (A549): > 50 µM |
| COc1cc([C@H](O)[C@@H](CO)Oc2ccc(/C=C/C=O)cc2OC)ccc1O | Dose-dependent effect | > 50 | Dose-dependent effect | 36.4 | Dose-dependent effect | 38.5 | Dose-dependent effect | 35.2 | > 50 | Dose-dependent effect | > 50 | Dose-dependent effect | Dose-dependent effect | > 50 | Dose-dependent effect | > 50 | Dose-dependent effect | 36.6 | Dose-dependent effect | Dose-dependent effect | IC50 (HCT-116): 32.5 µM; IC50 (A549): 33.6 µM |
| COC/C=C/c1ccc(O[C@H](CO)[C@H](OC)c2ccc(O)c(OC)c2)c(OC)c1 | Dose-dependent effect | > 50 | Dose-dependent effect | > 50 | Dose-dependent effect | > 50 | Dose-dependent effect | 36.4 | > 50 | Dose-dependent effect | > 50 | Dose-dependent effect | Dose-dependent effect | > 50 | Dose-dependent effect | > 50 | Dose-dependent effect | 27.4 | Dose-dependent effect | Dose-dependent effect | IC50 (HCT-116): 36 µM; IC50 (A549): > 50 µM |
